Where two headings read alike, the source gives them in different places.

The target in this experiment is PolQ (1-899) (Homo sapiens (Human), UniProt O75417). The experiment in a line: PolQ ATPase assay (ADP-Glo). The experiment is classed as biochemical. The procedure: The ability of the compounds of the present disclosure to inhibit ATPase activity of PolQ (1-899) was determined using the assay described below.
PolQ ATPase activity was determined by ADP-Glo assay. 10-point dilution series of compounds were used in a 384 well format for the inhibition assays. PolQ (1-899) (1 nM) in assay buffer (20 mM Tris HCl (pH 8.0), 80 mM KCl, 10 mM MgCl2, 1 mM DTT, 0.01% BSA, 0.01% Tween, 5% glycerol) was transferred to the test wells (20 uL), except the low control wells (20 μL of assay buffer was added to the low control wells). The plate was then incubated at room temperature for 30 min. An equal volume (20 μL) of 100 μM ATP, 150 nM ssDNA containing 50 thymine bases in assay buffer was added to all the test wells. The plates were covered and left to incubate for 60 min. at room temperature before the addition of the ADP Glo detection reagents. After 60 min. incubation, transfer 5 μL reaction mix to another 384-well plate and add 5 μL ADP Glo and plates incubated for 60 min. before addition of 10 μL kinase detection reagent. After the addition of the kinase detection reagent, the plates were covered and incubated for 60 min. and read luminescence on Envision
Percent inhibition was calculated as follows:
[formula] • where “Max” is the high control (DMSO) and “Min” is the no enzyme control.
IC50 values were calculated using a four-parameter logistic curve fit using the following formula: […]
IC50 values were determined by fitting the data to the standard 4 parameters with Hill Slope using GraphPad Prism software.
(In general: ADP-Glo turns the ADP formed in a reaction into a luminescent signal.)

[1] abbreviates: inhibition of ATPase activity of PolQ (1-899), 1 nM enzyme, 100 μM ATP, 150 nM ssDNA, ADP-Glo.

PolQ (1-899), sequence (O75417 1-899): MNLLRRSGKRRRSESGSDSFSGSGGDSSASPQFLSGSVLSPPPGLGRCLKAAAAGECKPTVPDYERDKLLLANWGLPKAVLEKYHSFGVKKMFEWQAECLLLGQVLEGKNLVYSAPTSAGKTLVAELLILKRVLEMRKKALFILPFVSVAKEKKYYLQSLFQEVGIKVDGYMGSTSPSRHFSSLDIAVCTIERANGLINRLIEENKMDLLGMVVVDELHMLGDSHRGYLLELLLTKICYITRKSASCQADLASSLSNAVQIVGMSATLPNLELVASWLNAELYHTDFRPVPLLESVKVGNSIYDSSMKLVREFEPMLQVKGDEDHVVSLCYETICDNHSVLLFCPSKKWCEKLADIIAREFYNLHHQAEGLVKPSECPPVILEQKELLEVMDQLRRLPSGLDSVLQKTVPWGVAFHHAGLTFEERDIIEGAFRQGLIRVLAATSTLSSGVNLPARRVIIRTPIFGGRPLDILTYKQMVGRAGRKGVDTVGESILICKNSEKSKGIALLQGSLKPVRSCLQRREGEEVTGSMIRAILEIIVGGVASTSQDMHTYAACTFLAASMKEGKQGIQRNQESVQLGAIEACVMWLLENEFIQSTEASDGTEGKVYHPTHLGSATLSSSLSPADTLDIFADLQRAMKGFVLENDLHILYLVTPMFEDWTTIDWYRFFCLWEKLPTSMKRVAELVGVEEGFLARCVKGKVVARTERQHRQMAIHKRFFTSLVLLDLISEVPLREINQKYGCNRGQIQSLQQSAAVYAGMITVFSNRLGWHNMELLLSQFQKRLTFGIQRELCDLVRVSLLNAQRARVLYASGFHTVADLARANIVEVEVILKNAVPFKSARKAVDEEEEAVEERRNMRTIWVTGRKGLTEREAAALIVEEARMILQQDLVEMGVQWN

By IC50 is commonly meant the concentration that gives 50% inhibition. A higher IC50 goes with weaker potency in that assay. For the compound `COCCn1nc(NC(=O)c2cnc(C)cc2-c2c(OC)ccc(Cl)c2F)sc1=O` [Example 1, 4-(3-Chloro-2-fluoro-6-methoxyphenyl)-N-(4-(2-methoxyethyl)-5-oxo-4,5-dihydro-1,3,4-thiadiazol-2-yl)-6-methylnicotinamide], the concentration for half-maximal inhibition (IC50) under setting [1] was below 10 nM.

As for `COc1ccc(Cl)c(F)c1-c1cc(C)ncc1C(=O)Nc1nn(CC(F)(F)F)c(=O)s1` [Example 2, 4-(3-Chloro-2-fluoro-6-methoxyphenyl)-6-methyl-N-(5-oxo-4-(2,2,2-trifluoroethyl)-4,5-dihydro-1,3,4-thiadiazol-2-yl)nicotinamide], the IC50 under setting [1] was below 10 nM. `CCn1nc(NC(=O)c2cnc(C)cc2-c2c(OC)ccc(Cl)c2F)sc1=O` [Example 3, 4-(3-Chloro-2-fluoro-6-methoxyphenyl)-N-(4-ethyl-5-oxo-4,5-dihydro-1,3,4-thiadiazol-2-yl)-6-methylnicotinamide] came in with a 50% inhibitory concentration (IC50) under setting [1] below 10 nM. Compound `COCCCn1nc(NC(=O)c2cnc(C)cc2-c2c(OC)ccc(Cl)c2F)sc1=O` [Example 4, 4-(3-Chloro-2-fluoro-6-methoxyphenyl)-N-(4-(3-methoxypropyl)-5-oxo-4,5-dihydro-1,3,4-thiadiazol-2-yl)-6-methylnicotinamide] displayed an IC50 under setting [1] below 10 nM. Still for that read-out and setting: in the case of `COCCCCn1nc(NC(=O)c2cnc(C)cc2-c2c(OC)ccc(Cl)c2F)sc1=O` [Example 5, 4-(3-Chloro-2-fluoro-6-methoxyphenyl)-N-(4-(4-methoxybutyl)-5-oxo-4,5-dihydro-1,3,4-thiadiazol-2-yl)-6-methylnicotinamide] it was below 10 nM; in that of `COc1ccc(Cl)c(F)c1-c1cc(C)ncc1C(=O)Nc1nn(CCO)c(=O)s1` [Example 6, 4-(3-Chloro-2-fluoro-6-methoxyphenyl)-N-(4-(2-hydroxyethyl)-5-oxo-4,5-dihydro-1,3,4-thiadiazol-2-yl)-6-methylnicotinamide], below 10 nM; in that of `COc1ccc(Cl)c(F)c1-c1cc(C)ncc1C(=O)Nc1nn(CCCO)c(=O)s1` [Example 7, 4-(3-Chloro-2-fluoro-6-methoxyphenyl)-N-(4-(3-hydroxypropyl)-5-oxo-4,5-dihydro-1,3,4-thiadiazol-2-yl)-6-methylnicotinamide], below 10 nM. For `COc1ccc(Cl)c(F)c1-c1cc(C)ncc1C(=O)Nc1nn(CC(=O)O)c(=O)s1` [Example 8, 2-(5-(4-(3-Chloro-2-fluoro-6-methoxyphenyl)-6-methylnicotinamido)-2-oxo-1,3,4-thiadiazol-3(2H)-yl)acetic acid], the IC50 under setting [1] was below 10 nM. `COc1ccc(Cl)c(F)c1-c1cc(C)ncc1C(=O)Nc1nn(CC(=O)N2CC[C@@H](N(C)C)C2)c(=O)s1` [Example 9, 4-(3-Chloro-2-fluoro-6-methoxyphenyl)-N-(4-(2-((R)-3-(dimethylamino)pyrrolidin-1-yl)-2-oxoethyl)-5-oxo-4,5-dihydro-1,3,4-thiadiazol-2-yl)-6-methylnicotinamide]: the half-maximal inhibitory concentration (IC50) was in the range of 10 to 100 nM. The compound `COc1ccc(Cl)c(F)c1-c1cc(C)ncc1C(=O)Nc1nn(CC(=O)N2CC[C@H](N(C)C)C2)c(=O)s1` [Example 10, 4-(3-Chloro-2-fluoro-6-methoxyphenyl)-N-(4-(2-((S)-3-(dimethylamino)pyrrolidin-1-yl)-2-oxoethyl)-5-oxo-4,5-dihydro-1,3,4-thiadiazol-2-yl)-6-methylnicotinamide] showed an IC50 of 10 to 100 nM.

Take `COc1ccc(Cl)c(F)c1-c1cc(C)ncc1C(=O)Nc1nn(CCC#N)c(=O)s1` [Example 11, 4-(3-Chloro-2-fluoro-6-methoxyphenyl)-N-(4-(2-cyanoethyl)-5-oxo-4,5-dihydro-1,3,4-thiadiazol-2-yl)-6-methylnicotinamide]: under setting [1], the IC50 is below 10 nM.

As to `COc1ccc(Cl)c(F)c1-c1cc(C)ncc1C(=O)Nc1nn(CCCC#N)c(=O)s1` [Example 12, 4-(3-Chloro-2-fluoro-6-methoxyphenyl)-N-(4-(3-cyanopropyl)-5-oxo-4,5-dihydro-1,3,4-thiadiazol-2-yl)-6-methylnicotinamide], the IC50 under setting [1] is below 10 nM. The compound `COc1ccc(C(F)(F)F)c(F)c1-c1cc(C)ncc1C(=O)Nc1nn(CCCO)c(=O)s1` [Example 13, 4-(2-Fluoro-6-methoxy-3-(trifluoromethyl)phenyl)-N-(4-(3-hydroxypropyl)-5-oxo-4,5-dihydro-1,3,4-thiadiazol-2-yl)-6-methylnicotinamide] had an IC50 under setting [1] below 10 nM. Under setting [1], `COc1ccc(Cl)c(F)c1-c1cc(C)ncc1C(=O)Nc1nn(CCCCO)c(=O)s1` [Example 14, 4-(3-Chloro-2-fluoro-6-methoxyphenyl)-N-(4-(4-hydroxybutyl)-5-oxo-4,5-dihydro-1,3,4-thiadiazol-2-yl)-6-methylnicotinamide] yielded an IC50 below 10 nM. In turn, `COc1ccc(Cl)c(F)c1-c1cc(C)ncc1C(=O)Nc1nn(CCC(C)(C)O)c(=O)s1` [Example 15, 4-(3-Chloro-2-fluoro-6-methoxyphenyl)-N-(4-(3-hydroxy-3-methylbutyl)-5-oxo-4,5-dihydro-1,3,4-thiadiazol-2-yl)-6-methylnicotinamide] yielded an IC50 under setting [1] below 10 nM.

`COc1ccc(Cl)c(F)c1-c1cc(C)ncc1C(=O)Nc1nn(CCC(C)O)c(=O)s1` (stereo not shown) [Example 16, 4-(3-Chloro-2-fluoro-6-methoxyphenyl)-N-(4-(3-hydroxybutyl)-5-oxo-4,5-dihydro-1,3,4-thiadiazol-2-yl)-6-methylnicotinamide]: the IC50 under setting [1] was below 10 nM. For the compound `COc1ccc(Cl)c(F)c1-c1cc(C)ncc1C(=O)Nc1nn(CC2CC(O)C2)c(=O)s1` (stereo not shown) [Example 17, 4-(3-Chloro-2-fluoro-6-methoxyphenyl)-N-(4-((3-hydroxycyclobutyl)methyl)-5-oxo-4,5-dihydro-1,3,4-thiadiazol-2-yl)-6-methylnicotinamide], under setting [1], the concentration for half-maximal inhibition (IC50) is below 10 nM. Turning to `COc1ccc(Cl)c(F)c1-c1cc(C)ncc1C(=O)Nc1nn(CCn2cccn2)c(=O)s1` [Example 18, N-(4-(2-(1H-pyrazol-1-yl)ethyl)-5-oxo-4,5-dihydro-1,3,4-thiadiazol-2-yl)-4-(3-chloro-2-fluoro-6-methoxyphenyl)-6-methylnicotinamide], under setting [1], the IC50 is below 10 nM. With `COc1ccc(Cl)c(F)c1-c1cc(C)ncc1C(=O)Nc1nn(CC(C)O)c(=O)s1` (stereo not shown) [Example 20, 4-(3-Chloro-2-fluoro-6-methoxyphenyl)-N-(4-(2-hydroxypropyl)-5-oxo-4,5-dihydro-1,3,4-thiadiazol-2-yl)-6-methylnicotinamide], the IC50 under setting [1] is below 10 nM.

`CCC(O)Cn1nc(NC(=O)c2cnc(C)cc2-c2c(OC)ccc(Cl)c2F)sc1=O` (stereo not shown) [Example 21, 4-(3-Chloro-2-fluoro-6-methoxyphenyl)-N-(4-(2-hydroxybutyl)-5-oxo-4,5-dihydro-1,3,4-thiadiazol-2-yl)-6-methylnicotinamide] gave an IC50 under setting [1] below 10 nM.

Regarding `COc1ccc(Cl)c(F)c1-c1cnccc1C(=O)Nc1nn(CCCCO)c(=O)s1` [Example 22, 3-(3-Chloro-2-fluoro-6-methoxyphenyl)-N-(4-(4-hydroxybutyl)-5-oxo-4,5-dihydro-1,3,4-thiadiazol-2-yl)isonicotinamide], the IC50 under setting [1] was below 10 nM. Compound `COc1ccccc1-n1cncc1C(=O)Nc1nn(CCCCO)c(=O)s1` [Example 23, N-(4-(4-Hydroxybutyl)-5-oxo-4,5-dihydro-1,3,4-thiadiazol-2-yl)-1-(2-methoxyphenyl)-1H-imidazole-5-carboxamide] gave an IC50 under setting [1] above 500 nM.

For the origin of these results see patent publication US20260034113A1, “THIADIAZOLONE DERIVATIVES, COMPOSITIONS AND USES THEREOF” (Danatlas Pharmaceuticals Co., Ltd., priority 2023, published 2026).
